Here are results for 3 molecules from patent US20130130241A1, “ANDROGEN RECEPTOR ISOFORMS AND METHODS” (Regents of the University of Minnesota, priority 2010, published 2013).

The test system of series [1] is LNCaP cells expressing truncated AR isoforms. To be noted: Watson et al., 2010; cited from earlier work.
In series [2] the test system is patients with ADI prostate cancer. To be noted: Phase II trial; Scher et al., 2010; cited from earlier work.
Series [3] concerns androgen receptor. Put plainly: AR knock-down by siRNA in 22Rv1 cells, Western blot. In kind it is cell-based, human. To be noted: for expression of androgen receptor isoforms (Western blot): FIG. 3B. How it is done: FIG. 3. A) Schematic of androgen receptor mRNA isoforms expressed in 22Rv1 cells. DBD*, Exon 3-duplicated AR. B) 22Rv1 cells were electroporated with siRNAs targeted to Exons […]. androgen receptor and ERK-2 levels were determined. C) Rabbit antisera were raised against an Exon 2b-derived peptide. Equal amounts of 22Rv1 lysates were immunoprecipitated with crude antisera, or antibody purified on an immobilized Exon2b-peptide column, non-specific rabbit IgG, or a rabbit polyclonal antibody specific for the androgen receptor NTD. Western blots were performed with a mouse monoclonal antibody specific for the androgen receptor NTD.
We have investigated mechanisms of prostate cancer therapy resistance in cell- and xenograft-based models of prostate cancer progression with a focus on ligand-independent androgen receptor activation (Dehm and Tindall, 2006 J Biol Chem 281:27882-93; Dehm and Tindall, 2007 Mol Endocrinol 21:2855-63). One model of interest is the ADI 22Rv1 prostate cancer cell line, which was derived from an androgen-dependent CWR22 prostate cancer xenograft that relapsed during androgen depletion (Sramkoski et al., 1999 In Vitro Cell Dev Biol Anim 35:403-9). […] The Exon 1 and Exon 7 targeted siRNAs were purchased from Dharmacon, Inc. (Lafayette, Colo.). The sequences are as follows:
Truncated androgen receptor from 22Rv1 cells appears as a doublet in Western blot experiments (FIG. 3B). Because 3′ RACE experiments identified AR 1/2/2b and AR 1/2/3/2b as alternatively spliced androgen receptor isoforms in this cell line, we pursued the hypothesis that these two discrete bands represented AR 1/2/2b and AR 1/2/3/2b (Dehm et al., 2008 Cancer Res 68:5469-77). […] To this end, we tested siRNAs targeted to AR Exon 1, AR Exon 3, or AR Exon 7 (FIG. 3A).
Western blotting of CWR22Pc and 22Rv1 lysates with AR (Santa Cruz N-20), ERK-2 (Santa Cruz D-2), and ARV-7 (Precision Antibody #AG10008) antibodies was performed exactly as described (Dehm et al., 2008 Cancer Res 68:5469-77).
In general terms: A western blot detects proteins with antibodies after separation by electrophoresis.

Series [4] relates to 22Rv1 cells. To be noted: Dehm et al., 2008; cited from earlier work.
Series [5] deals with androgen receptor target genes. To be noted: 22Rv1 cells; Dehm et al., 2008; cited from earlier work.

As to `CNC(=O)c1ccc(N2C(=S)N(c3ccc(C#N)c(C(F)(F)F)c3)C(=O)C2(C)C)cc1F` [MDV3100], in series [1], the “androgen-independent growth of LNCaP cells expressing truncated AR isoforms” value is “inhibit”. In addition, the “share of CRPCa patients with robust decrease in serum PSA levels (at least 50%), stabilized bone disease, conversion of CTC counts to favorable” value in series [2] is listed as “one-half”.

For the molecule “AR Exon 7-targeted siRNA: Dharmacon siRNA duplex targeted to AR Exon 7; sense SEQ ID NO: 3, antisense SEQ ID NO: 4 (sense GGAACUCGAUCGUAUCAUUUU; antisense AAUGAUACGAUCGAGUUCCUU; listed as RNA, chemistry not given here)”, the “expression of androgen receptor isoforms (Western blot)” value in series [3] is “selectively knocked down expression of full-length androgen receptor”. The “androgen-independent proliferation of 22Rv1 cells” value in series [4] is listed as “not”. In series [5], the “androgen-independent expression of androgen receptor target genes” value was “not”.

As to “AR Exon 1-targeted siRNA: Dharmacon siRNA duplex targeted to AR Exon 1; sense SEQ ID NO: 1, antisense SEQ ID NO: 2 (sense CAAGGGAGGUUACACCAAAUU; antisense UUUGGUGUAACCUCCCUUGUU; listed as RNA, chemistry not given here)”, in series [3], the “expression of a ~80 kDa androgen receptor protein species” value is “knocked-down” and the “expression of androgen receptor isoforms (Western blot)” value was “knocked down expression of all androgen receptor isoforms”. In addition, in series [4], the “androgen-independent proliferation of 22Rv1 cells” value is given as “inhibited”. For the same molecule, the “androgen-independent expression of androgen receptor target genes” value in series [5] was “inhibited”.
